In the assay the test system is P388 murine leukemia cells. The assay can be described thus: Cytotoxicity against P388 murine leukemia cells (MTT assay). The format is cell-based. The note with it: sample added after 24 hours, cultivated 3 days at 37°C, 5% CO₂, absorption at 540 nm; for IC₅₀: P388 cells 2.5x10³ per well, hydrochloride. The method, then: P388 murine leukemia cells were spread over a 96-well microplate, 2.5x10³ cells per well. A sample to be tested was added after 24 hours. Cells were cultivated under the conditions of 5% CO₂ at 37°C for 3 days. 3-(4,5-Dimethylthiazol-2-yl)-2,5-diphenyl-2H-tetrazolium bromide (MTT) was added 4 hours after the addition of the sample. Upon the addition of 200 µl/ml of isopropyl alcohol containing 0.04 N HCl the absorption at 540 nm was measured to determine IC₅₀.

SMILES strings stand for the structures.

With `CC[C@@]1(O)C(=O)OCc2c1cc1n(c2=O)Cc2c-1nc1ccc(OC)c3c1c2CCC3N.Cl` (single isomer, unassigned) [Example 7 (Isomer A)], the IC50 (Mus musculus, P388, P388 cells 2.5x10³ per well, read-out: IC₅₀) worked out at 0.0114 µg/mL.

As to `CC[C@@]1(O)C(=O)OCc2c1cc1n(c2=O)Cc2c-1nc1ccc(OC)c3c1c2C(N)CC3.Cl` (single isomer, unassigned) [Example 4 (Isomer A)], the IC₅₀ is 9.21 ng/mL.

As for `CC[C@@]1(O)C(=O)OCc2c1cc1n(c2=O)Cc2c-1nc1cccc3c1c2C(N)CC3.Cl` (single isomer, unassigned) [Example 2 (Isomer A)], the IC₅₀ stood at 3.38 ng/mL.

On to `CC[C@@]1(O)C(=O)OCc2c1cc1n(c2=O)Cc2c-1nc1ccc(OC)c3c1c2CCC3N.Cl` (single isomer, unassigned) [Example 7 (Isomer B)], for which the IC₅₀ came to 11.90 ng/mL.

`CC[C@@]1(O)C(=O)OCc2c1cc1n(c2=O)Cc2c-1nc1ccc(OC)c3c1c2C(N)CC3.Cl` (single isomer, unassigned) [Example 4 (Isomer B)] returned an IC₅₀ of 27.80 ng/mL.

For the compound `CC[C@@]1(O)C(=O)OCc2c1cc1n(c2=O)Cc2c-1nc1cccc3c1c2C(N)CC3.Cl` (single isomer, unassigned) [Example 2 (Isomer B)], the IC₅₀ was found to be 12.40 ng/mL.

The values above are taken from patent EP0495432A1, “Hexa-cyclic compound” (DAIICHI PHARMACEUTICAL CO., LTD., priority 1991, dated 1992).
